The first experiment relates to unidentified influenza virus. The experiment in a line: Antiviral activity against avian influenza virus H5N1. The experiment is classed as functional, organism-based.
In general, EC50 refers to the concentration at which the effect is half-maximal. A high value points to a need for much substance. In turn, `CCC(O)c1cn([C@H]2C=C(C(=O)O)O[C@@H]([C@H](O)[C@H](O)CO)[C@@H]2NC(C)=O)nn1` (some centres not stated) registered an EC50 of 6.4 µM. This lies in the single-digit micromolar range.

The target of a further experiment is Neuraminidase (Influenza A virus, UniProt B4URF0). The experiment in a line: Inhibition of influenza A nuraminidase N1.
Chain of Neuraminidase (B4URF0 whole entry): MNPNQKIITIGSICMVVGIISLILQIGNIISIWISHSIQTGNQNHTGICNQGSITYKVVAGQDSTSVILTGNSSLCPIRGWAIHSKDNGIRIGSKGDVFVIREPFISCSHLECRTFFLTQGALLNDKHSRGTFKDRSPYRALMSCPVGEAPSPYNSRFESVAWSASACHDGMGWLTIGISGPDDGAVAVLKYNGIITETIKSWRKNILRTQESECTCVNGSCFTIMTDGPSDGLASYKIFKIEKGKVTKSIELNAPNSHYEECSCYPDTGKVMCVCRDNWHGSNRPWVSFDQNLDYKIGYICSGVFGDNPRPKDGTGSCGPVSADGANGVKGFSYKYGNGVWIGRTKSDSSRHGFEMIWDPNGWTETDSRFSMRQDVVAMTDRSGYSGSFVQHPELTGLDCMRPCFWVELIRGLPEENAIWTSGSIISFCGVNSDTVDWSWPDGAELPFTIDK
The term Ki denotes the dissociation constant of the complex between target and ligand, obtained from inhibition or displacement. `CCC(CC)O[C@@H]1CC(C(=O)O)=C[C@H](n2cc(CCc3ccccc3)nn2)[C@H]1NC(C)=O`: affinity was put at a Ki of 1.2 µM.

As to `CCC(CC)O[C@@H]1CC(C(=O)O)=C[C@H](n2cc(C(O)CC)nn2)[C@H]1NC(C)=O` (some centres not stated), the affinity, expressed as Ki, was 0.072 µM.

Turning to `CCC(CC)O[C@@H]1CC(C(=O)O)=C[C@H](NC(=N)N)[C@H]1NC(C)=O`, the affinity, expressed as Ki, was 0.00046 µM.

On to `CCC(CC)O[C@@H]1CC(C(=O)O)=C[C@H](n2cc(CCCO)nn2)[C@H]1NC(C)=O`, for which the affinity, expressed as Ki, was 0.46 µM. Against the preceding molecule, the Ki is about 1000-fold higher.

The molecule `CCC(CC)O[C@@H]1CC(C(=O)O)=C[C@H](n2cc(C(C)(C)O)nn2)[C@H]1NC(C)=O` yielded a Ki of 0.13 µM. This Ki is about 3.5-fold lower than that of the molecule before.

The term IC50 denotes the concentration needed to halve the response being measured. Read a low IC50 as greater potency in that assay. For the molecule `CCC(CC)O[C@@H]1CC(C(=O)O)=C[C@H](n2cc(C3(O)CCCCC3)nn2)[C@H]1NC(C)=O`, the midpoint of inhibition, the IC50, lay at 4.8 µM.

As to `CCC(CC)O[C@@H]1CC(C(=O)O)=C[C@H](n2cc(C3(O)CCCC3)nn2)[C@H]1NC(C)=O`, the IC50 worked out at 11 µM.

Molecule `CCC(CC)O[C@@H]1CC(C(=O)O)=C[C@H](n2cc([C@]3(O)CC[C@H]4[C@@H]5CCc6cc(O)ccc6[C@H]5CC[C@@]43C)nn2)[C@H]1NC(C)=O` gave a Ki of 5.8 µM. This counts as single-digit micromolar.

The molecule `CCC(CC)O[C@@H]1CC(C(=O)O)C=C(n2cc(CCc3ccccc3)nn2)[C@H]1NC(C)=O` (mixture of isomers) had a Ki of 60 µM.

Consider `CCC(CC)O[C@@H]1CC(C(=O)O)C=C(n2cc(C(C)(C)O)nn2)[C@H]1NC(C)=O` (mixture of isomers), for which the Ki was 19 µM.

For `CC(=O)N[C@H]1[C@H]([C@H](O)[C@H](O)CO)OC(C(=O)O)=C[C@@H]1O` [NEU5AC2EN], the Ki is 5.9 µM.

The values above are taken from ChEMBL document CHEMBL1268913, “Carbocycles related to oseltamivir as influenza virus group-1-specific neuraminidase inhibitors. Binding to N1 enzymes in the context of virus-like particles” (J Med Chem, 2010).
